Where two headings read alike, the source gives them in different places.
Assays:
Format in all cases: biochemical
TbINO1 [1] = target: T1, TbINO1 (Trypanosoma brucei brucei, UniProt Q5QQ46); test: biochemical
T1 construct: Hexa-His (N); made in house; host or cells: E. coli BL21 Rosetta (DE3)
T1 sequence (Q5QQ46 1-528): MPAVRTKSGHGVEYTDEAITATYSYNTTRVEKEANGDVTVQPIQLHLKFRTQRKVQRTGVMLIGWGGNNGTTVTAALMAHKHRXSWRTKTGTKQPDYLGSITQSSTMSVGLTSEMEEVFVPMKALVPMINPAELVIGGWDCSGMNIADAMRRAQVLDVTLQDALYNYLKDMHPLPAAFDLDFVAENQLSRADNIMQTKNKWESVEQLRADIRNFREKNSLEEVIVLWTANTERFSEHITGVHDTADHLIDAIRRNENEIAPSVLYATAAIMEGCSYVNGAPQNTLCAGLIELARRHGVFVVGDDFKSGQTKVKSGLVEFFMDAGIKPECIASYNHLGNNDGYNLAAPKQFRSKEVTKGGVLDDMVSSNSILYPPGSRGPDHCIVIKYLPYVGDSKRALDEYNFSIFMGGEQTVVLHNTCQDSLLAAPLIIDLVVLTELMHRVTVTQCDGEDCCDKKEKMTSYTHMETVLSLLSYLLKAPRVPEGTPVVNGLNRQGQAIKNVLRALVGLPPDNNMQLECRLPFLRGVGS
Experimental: (§1) An alternative reaction mixture consisted of 2 mM Tris-Ac (pH 9), 2 mM glucose-6-phosphate, 1 mM NAD^+, 1 mM DTT, 2 mM NH4Ac and 5 μg protein in a final volume of 20 μL. The reaction was incubated at 37° C. for 1 hr and terminated by heating at 100° C. for 10 min and the addition of 80 μL of 10 mM NaOH. For inhibitor studies the standard reaction mixture was prepared without glucose-6-phosphate, the inhibitor was added to the reaction and incubated on ice for 10 min prior to the addition of glucose-6-phosphate and subsequent incubation of 37° C. for 1 hr.
(§2) After quenching the reaction mix was analysed by high performance anion-exchange chromatography using a Dionex HPLC system with a CarboPacPA-1 column and PA-1 guard column (Dionex). The column was pre-equilibrated with 95% Buffer A (1 mM sodium hydroxide) and 5% Buffer B (1M sodium acetate+1 mM sodium hydroxide). An aliquot (20 μL) of the quenched reaction mixture was injected onto the column and eluted a linear gradient of 5-40% […], detected with pulsed amperometric detection and analysed with Chromeleon software (Dionex).
(§3) The TbINO1 was pre-incubated with potential inhibitor prior to the addition of glucose-6-phosphate or fructose-6-phosphate and quantification of inositol-3-phosphate and fructose-6-phosphate by HPLC.

TbINO1 [2] = target: T1, TbINO1; test: biochemical; remark: listed apart in the source
Experimental: as §1, §2, §3

TbINO1 [3] = target: T1, TbINO1; test: Compounds tested as substrates for TbINO1 in the standard reaction mixture, products separated by HPLC; details: tested as substrate, longer time periods; intermediate conversion to glucose-6-phosphate
Experimental: as §1
as §2, with “software (Dionex). The substrate glucose-6-phosphate and the product inositol-3-phosphate are clearly separated by this method. […]” for “software (Dionex).”

[4] = Table 2, inhibitor pre-incubated with recombinant TbINO1, glucose-6-phosphate as substrate, read-out: IC50 INO1 activity
[5] = Table 2, inhibitor pre-incubated with recombinant TbINO1, fructose-6-phosphate as substrate, read-out: IC50 PGI activity
[6] = Table 3, metabolic intermediates, pre-incubated, glucose-6-phosphate as substrate, read-out: IC50 INO1 activity
[7] = Table 3, metabolic intermediates, pre-incubated, fructose-6-phosphate as substrate, read-out: IC50 PGI activity

| SMILES | IC50 (TbINO1 [1]) [mM] | inhibition of INO1 activity (TbINO1 [1]) | IC50 (TbINO1 [2]) [mM] | inhibition of PGI (glucose-6-phosphate isomerase) activity (TbINO1 [2]) | IC50 (TbINO1 [1]; [4]) [mM] | IC50 (TbINO1 [2]; [5]) [mM] | conversion to inositol-3-phosphate by TbINO1 (TbINO1 [3]) | IC50 (TbINO1 [1]; [6]) [mM] | IC50 (TbINO1 [2]; [7]) [mM] |
| --- | --- | --- | --- | --- | --- | --- | --- | --- | --- |
| O=C[C@H](O)[C@@H](O)[C@@H](O)[C@H](O)COP(=O)(O)O [Galactose-6-P, galactose-6-phosphate] | > 10 | No inhibition | > 10 | No inhibition |  |  |  |  |  |
| O=P(O)(O)OC[C@H]1OC(O)[C@H](F)[C@@H](O)[C@@H]1O (some centres unmarked) [2-F-Glucose-6-P, 2-fluoro-glucose-6-phospahte] |  |  |  |  | 1 | 1 |  |  |  |
| O=C(CO)[C@@H](O)[C@H](O)[C@H](O)COP(=O)(O)O [fructose-6-phosphate] |  |  |  |  |  |  | quantitative conversion |  |  |
| O=C[C@H](O)COP(=O)(O)O [GAP] |  | Inhibition was observed |  | Inhibition was observed |  |  |  | 2 | 2 |
| CC(=O)N[C@H]1C(O)O[C@H](COP(=O)(O)O)[C@@H](O)[C@@H]1O (some centres unmarked) [Acetylglucosamine-6-P, acetylglucosamine-6-phosphate] |  | No inhibition |  | No inhibition | > 10 | > 10 |  |  |  |
| CC(=O)N[C@H]1C(OP(=O)(O)O)O[C@H](CO)[C@@H](O)[C@@H]1O (some centres unmarked) [Acetylglucosamine-1-P, acetylglucosamine-1-phosphate] |  | No inhibition |  | No inhibition | > 10 | > 10 |  |  |  |
| O=C(CO)COP(=O)(O)O [DHAP] |  | Inhibition was observed |  | Inhibition was observed |  |  |  | 3 | 3 |
| O=CC[C@@H](O)[C@H](O)[C@H](O)CO [2-Deoxyglucose] | > 10 |  | > 10 |  |  |  |  |  |  |
| O=C(O)CC(=O)C(=O)O [OAA] |  | Inhibition was observed |  | Inhibition was observed |  |  |  | 1.5 | 2 |
| CC(=O)C(=O)O [Pyruvate, pyruvate] | > 10 |  | > 10 |  |  |  |  |  |  |
| C=C(OP(=O)(O)O)C(=O)O [PEP] |  | No inhibition |  | No inhibition |  |  |  | > 10 | > 10 |
| O=P(O)(O)OC[C@H]1OC(O)[C@H](O)[C@@H](F)[C@@H]1O (some centres unmarked) [3-F-Glucose-6-P, 3-fluoro-glucose-6-phospahte] | 2.5 |  | 2.5 |  |  |  |  |  |  |
| O=P(O)(O)OCC(O)CO (centres unmarked) [Glycerophosphate] |  | No inhibition |  | No inhibition | > 10 | > 10 |  |  |  |
| O=C(O)[C@H](O)[C@@H](O)[C@H](O)[C@H](O)COP(=O)(O)O [6-phosphogluconic acid] | > 10 | No inhibition | > 10 | No inhibition |  |  |  |  |  |
| O=C(CO)CO [DHA] |  | no inhibition |  | no inhibition |  |  |  | > 10 | > 10 |
| O=P(O)(O)O[C@H]1O[C@H](CO)[C@@H](O)[C@H](O)[C@H]1O [Glucose-1-P, glucose-1-phosphate] |  | No inhibition |  | No inhibition | > 10 | > 10 |  |  |  |
| O=P(O)(O)OC[C@H]1OC(O)[C@H](O)[C@@H](O)[C@@H]1F (some centres unmarked) [4-F-Glucose-6-P, 4-fluoro-glucose-6-phospahte] | > 10 |  | > 10 |  |  |  |  |  |  |
| O=CC(O)CO (centres unmarked) [Glyceraldehyde, glyceraldehyde] | > 10 | no inhibition | > 10 | no inhibition |  |  |  |  |  |
| O=C[C@@H](O)[C@@H](O)[C@H](O)[C@H](O)COP(=O)(O)O [Mannose-6-P, mannose-6-phosphate] | > 10 | No inhibition | > 10 | No inhibition |  |  |  |  |  |
| COC1O[C@H](COP(=O)(O)O)[C@@H](O)[C@H](O)[C@H]1O (some centres unmarked) [1-OMe-Glucose-6-P, glucose-1-O-methyl-6-phospahte] |  |  |  |  | 2.5 | 2.5 |  |  |  |
| O=P(O)(O)OC[C@H]1OC(O)C[C@@H](O)[C@@H]1O (some centres unmarked) [2-Deoxyglucose-6-P] | 4 |  | 4 |  |  |  |  |  |  |
| CCCC(CCC)C(=O)O [VPA] |  | No inhibition |  | No inhibition |  |  |  | > 10 | > 10 |

— patent publication US10131928B2, “Inositol biotransformation” (University Court of the University of St Andrews, priority 2013, dated 2018)
